Source: ChEMBL document CHEMBL4673293, “Trypanocidal activity of new 1,6-diphenyl-1H-pyrazolo[3,4-b]pyridine derivatives: Synthesis, in vitro and in vivo studies” (Bioorg Med Chem, 2021)
Calls of active or inactive are those of the source. No cut-off for these calls is given here.

Tests used:
[1] = Selectivity index, ratio of CC50 for monkey LLC-MK2 cells to IC50 for antitrypanosomal activity against intracellular amastigote form of Trypanosoma cruzi Tulahuen strain infected in monkey LLC-MK2 cells; assay type: toxicity, cell-based; conditions: read-out: Ratio CC50/IC50
Trypanosoma cruzi [2] = test: (§1) Antitrypanosomal activity against intracellular amastigote form of Trypanosoma cruzi Tulahuen strain infected in monkey LLC-MK2 cells assessed as reduction in parasite viability incubated for 72 hrs by beta-galactosidase reporter gene assay; assay type: functional, organism-based
[3] = Cytotoxicity against monkey LLC-MK2 cells assessed as reduction in cell viability incubated for 72 hrs by MTT assay; assay type: cell-based, Macaca mulatta; conditions: rhesus monkey
[4] = Renal toxicity in BALB/c mouse infected with blood trypomastigote form of Trypanosoma cruzi strain Y assessed as creatinine level in plasma at 25 mg/kg, po administered via gavage daily for 15 days starting from 2 days post-infection and measured on 16th day post-infection; assay type: organism-based; conditions: in vivo, 360 h, time 15 day
Trypanosoma cruzi [5] = test: (§2) Antitrypanosomal activity against blood trypomastigote form of Trypanosoma cruzi strain Y infected in BALB/c mouse assessed as reduction in parasite DNA load in host heart at 25 mg/kg, po administered via gavage daily for 15 days starting from 2 days post-infection and measured on 16th day post-infection by qPCR analysis relative to control; assay type: functional; conditions: for Activity: time 15.0 day
[6] = Reduction in inflammatory cell infiltration in heart of BALB/c mouse infected with blood trypomastigote form of Trypanosoma cruzi strain Y at 25 mg/kg, po administered via gavage daily for 15 days starting from 2 days post-infection and measured on 16th day post-infection by haematoxylin and eosin staining based microscopic analysis relative to control; assay type: functional; conditions: 360 h, time 15 day
Trypanosoma cruzi [7] = test: as §2, with “parasitemia” for “parasite DNA load in host heart”, “7th” for “16th”, “optical microscopy” for “qPCR analysis”; assay type: functional; conditions: 360 h, time 15 day
Trypanosoma cruzi [8] = test: as §1, with “Potency index, ratio of benznidazole IC50 to test compound IC50 for antitrypanosomal” for “Antitrypanosomal”; assay type: functional
Trypanosoma cruzi [9] = test: as §2, with “amastigote nest” for “parasite DNA load”, “haematoxylin and eosin staining based microscopic” for “qPCR”, “analysis” for “analysis relative to control”; assay type: functional; conditions: for inhibition in vivo at 25 mg/kg: 360 h, time 15 day
[10] = Hepatotoxicity in BALB/c mouse infected with blood trypomastigote form of Trypanosoma cruzi strain Y assessed as AST level in plasma at 25 mg/kg, po administered via gavage daily for 15 days starting from 2 days post-infection and measured on 16th day post-infection; assay type: toxicity, organism-based; conditions: in vivo, 360 h, time 15 day
Trypanosoma cruzi [11] = test: as §2, with “parasitemia” for “parasite DNA load in host heart”, “13th” for “16th”, “optical microscopy” for “qPCR analysis”; assay type: functional; conditions: 360 h, time 15 day
[12] = Cardiac toxicity in BALB/c mouse infected with blood trypomastigote form of Trypanosoma cruzi strain Y assessed as CK-MB level in plasma at 25 mg/kg, po administered via gavage daily for 15 days starting from 2 days post-infection and measured on 16th day post-infection; assay type: organism-based; conditions: in vivo, 360 h, time 15 day
[13] = Hepatotoxicity in BALB/c mouse infected with blood trypomastigote form of Trypanosoma cruzi strain Y assessed as ALT level in plasma at 25 mg/kg, po administered via gavage daily for 15 days starting from 2 days post-infection and measured on 16th day post-infection; assay type: toxicity, organism-based; conditions: in vivo, 360 h, time 15 day
[14] = Trypanosoma cruzi, Tulahuen, LLC-MK2, 72 h, read-out: IC50

| SMILES | IC50 (Trypanosoma cruzi [2]; [14]) | selectivity ratio [1] | CC50 at 72 h [3] | other results |
| --- | --- | --- | --- | --- |
| CC(=O)Oc1cccc(C2OC(c3cc(-c4ccccc4)nc4c3c(C)nn4-c3ccccc3)=NN2C(C)=O)c1 (stereo not drawn) | 16.2 µM | > 6.15 | > 100 µM | – |
| Cc1nn(-c2ccccc2)c2nc(-c3ccccc3)cc(C(=O)N/N=C/c3ccc(O)c(O)c3)c12 | 22.9 µM | 3.11 | 71.2 µM | – |
| Cc1nn(-c2ccccc2)c2nc(-c3ccccc3)cc(C(=O)N/N=C/c3cccc(O)c3)c12 | 23.2 µM | 3 | 69.6 µM | – |
| Cc1nn(-c2ccccc2)c2nc(-c3ccccc3)cc(C(=O)N/N=C/c3ccc(O)cc3)c12 | 21.4 µM | > 250 | > 250 µM | – |
| COc1ccc(C2OC(c3cc(-c4ccccc4)nc4c3c(C)nn4-c3ccccc3)=NN2C(C)=O)cc1OC(C)=O (stereo not drawn) | – | – | – | IC50 (Trypanosoma cruzi [2]; llc-mk2): Nd(Insoluble) |
| O=C(Cn1ccnc1[N+](=O)[O-])NCc1ccccc1 [BENZNIDAZOLE] | 3.98 µM | > 50.2 | > 200 µM | Activity [4]: Non-Toxic; inhibition in vivo at 25 mg/kg (Trypanosoma cruzi [5]; 360 h, time 15 day): 99%; inhibition in vivo at 25 mg/kg [6]: 76%; inhibition in vivo at 25 mg/kg (Trypanosoma cruzi [9]): 100%; Activity [10]: Non-Toxic; Activity [12]: Non-Toxic; Activity [13]: Non-Toxic |

Continued, in another order:

| IC50 (Trypanosoma cruzi [2]; [14]) | SMILES | selectivity ratio [1] | CC50 at 72 h [3] | other results |
| --- | --- | --- | --- | --- |
| 0.85 µM | Cc1nn(-c2ccccc2)c2nc(-c3ccccc3)cc(C(=O)N/N=C/c3ccccc3O)c12 | > 235 | > 200 µM | Activity [4]: Non-Toxic; Activity (Trypanosoma cruzi [5]): inactive; inhibition in vivo at 25 mg/kg [6]: 62.5%; inhibition in vivo at 25 mg/kg (Trypanosoma cruzi [7]): 44.7%; Ratio IC50 (Trypanosoma cruzi [8]): 4; Activity (Trypanosoma cruzi [9]; time 15.0 day): inactive; Activity [10]: Non-Toxic; inhibition in vivo at 25 mg/kg (Trypanosoma cruzi [11]): 14.5%; Activity [12]: Toxic; Activity [13]: Non-Toxic |
| 33.9 µM | CC(=O)Oc1ccc(C2OC(c3cc(-c4ccccc4)nc4c3c(C)nn4-c3ccccc3)=NN2C(C)=O)cc1OC(C)=O (stereo not drawn) | 1.6 | 54.5 µM | – |
| 1.11 µM | CC(=O)Oc1ccccc1C1OC(c2cc(-c3ccccc3)nc3c2c(C)nn3-c2ccccc2)=NN1C(C)=O (stereo not drawn) | > 90.1 | > 100 µM | Activity [4]: Non-Toxic; Activity (Trypanosoma cruzi [5]): inactive; inhibition in vivo at 25 mg/kg [6]: 51%; inhibition in vivo at 25 mg/kg (Trypanosoma cruzi [7]): 46.1%; inhibition in vivo at 25 mg/kg (Trypanosoma cruzi [9]): 57%; Activity [10]: Non-Toxic; inhibition in vivo at 25 mg/kg (Trypanosoma cruzi [11]): 53%; Activity [12]: Non-Toxic; Activity [13]: Non-Toxic |
| 21 µM | COc1ccc(/C=N/NC(=O)c2cc(-c3ccccc3)nc3c2c(C)nn3-c2ccccc2)cc1O | 2.52 | 53 µM | – |
| 10.5 µM | CC(=O)N1N=C(c2cc(-c3ccccc3)nc3c2c(C)nn3-c2ccccc2)OC1c1cccc(O)c1 (stereo not drawn) | 1.63 | 17.2 µM | – |
| 22.6 µM | CC(=O)Oc1ccc(C2OC(c3cc(-c4ccccc4)nc4c3c(C)nn4-c3ccccc3)=NN2C(C)=O)cc1 (stereo not drawn) | 2.86 | 64.8 µM | – |
| 17.7 µM | CC(=O)N1N=C(c2cc(-c3ccccc3)nc3c2c(C)nn3-c2ccccc2)OC1c1ccc(O)cc1 (stereo not drawn) | 1.94 | 34.4 µM | – |
